Experimental data as given in patent publication US10280416B1, “Magnetic ionic liquids, methods of making and uses thereof as solvents in the extraction and preservation of nucleic acids” (The University of Toledo, priority 2015, dated 2019).

What was measured:
[1] = solubility of MILs in water; type: physicochemical
Excerpt: Independent of the substituent functional groups imparted by the quaternization reaction, MILs 1-3 were immiscible with water at compositions as low as 0.1% (w/v) MIL. The hydrophobic properties of the monocationic MILs are thus useful for applications such as aqueous liquid-liquid microextractions, where extremely low phase ratios of extraction solvent are employed.

[2] = effective magnetic moment, Evans magnetic susceptibility balance; type: physicochemical; settings: measured at 295K
Excerpt: The paramagnetic properties of MILs provide a unique advantage over conventional ILs by permitting control over substrate motion through the application of an external magnetic field. […] The general expression for molar magnetic susceptibility using the Evans balance is shown in eq 1:
[formula] where XM represents the molar magnetic susceptibility, Cbal is the balance calibration constant, L corresponds to the length of the sample in the tube, M is the molecular weight of the compound being measured, R is the instrument reading for the sample in the tube, Ro is the instrument reading for the empty sample tube, and m is the mass of sample introduced into the Evan's balance. From XM, it is possible to calculate μeff according to eq 2: μeff=2.83√{square root over (XMT)} (2) where T is the absolute temperature. […] In order to increase the magnetic susceptibility of MILs, multiple paramagnetic iron(III) centers were incorporated into the MIL structure. […] The iron(III)-based MILs represent an inexpensive and useful alternative to MILs based on lanthanides, such as Dy(III) (μeff=10.6 μB). Moreover, the higher response of MILs 10 and 11 toward magnetic fields enables the use of smaller magnets with lower field strength for their manipulation in solution, which is useful in miniaturized magnet-based systems.

[3] = molecular target: T1, albumin from chicken egg white (Gallus gallus, UniProt P01012); assay: MIL-based DDE, coextraction of protein from stDNA/albumin matrix; settings: pH 4.4; albumin 3.4 μM, stDNA 4.17 nM
T1 construct: albumin from chicken egg white; purchased Sigma-Aldrich (St. Louis, Mo., USA); host or cells: chicken egg white (natural source)
T1 sequence (P01012 1-386): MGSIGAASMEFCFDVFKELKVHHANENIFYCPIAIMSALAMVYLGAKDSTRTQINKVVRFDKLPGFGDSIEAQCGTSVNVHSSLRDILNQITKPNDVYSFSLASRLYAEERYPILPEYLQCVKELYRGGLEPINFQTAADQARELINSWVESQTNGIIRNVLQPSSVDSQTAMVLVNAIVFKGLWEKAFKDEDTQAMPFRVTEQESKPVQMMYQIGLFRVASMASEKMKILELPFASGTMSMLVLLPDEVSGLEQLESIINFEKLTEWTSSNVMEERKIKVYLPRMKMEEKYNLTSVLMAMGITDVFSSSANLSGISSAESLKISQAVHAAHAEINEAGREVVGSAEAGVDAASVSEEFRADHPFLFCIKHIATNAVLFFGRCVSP
Description: High performance liquid chromatography with UV detection was performed on a LC-20A liquid chromatograph (Shimadzu, Japan) consisting of two LC-20AT pumps, a SPD-20 UV/vis detector, and a DGU-20A3 degasser. Chromatographic separations were performed on a 35 mm×4.6 mm i.d.×2.5 μm TSKgel DEAE-NPR anion exchange column with a 5 mm×4.6 mm i.d.×5 μm TSKgel DEAE-NPR guard column from Tosoh Bioscience (King of Prussia, Pa.). The column was equilibrated with a mobile phase composition of 50:50 (A) 20 mM Tris-HCl (pH 8), and (B) 1 M NaCl/20 mM Tris-HCl (pH 8). For stDNA analysis, gradient elution was performed beginning with 50% mobile phase B and increased to 100% B over 10 min. In the separation of ssDNA as well as DNA and albumin, the column was first equilibrated with 20 mM Tris-HCl followed by gradient elution from 0% to 50% B over 10 min and then 50% to 100% B over 5 min. A flow rate of 1 mL min−1 was used for all HPLC separations. DNA and albumin were detected at 260 and 280 nm, respectively.
Sample matrices containing either metal ions or protein (albumin) were prepared from stock solutions. A sample solution containing 388 mM NaCl, 153 mM KCl, 38.1 mM CaCl2.2H2O, 28.3 mM MgCl2.6H2O, and 4.17 nM stDNA was extracted in triplicate using MIL-based DDE for all three MILs. For experiments involving protein as a matrix component, the samples were prepared at an albumin concentration of 3.4 μM and stDNA concentration of 4.17 nM with the pH varied from 3.5 to 8.

[4] = solubility of MILs in hexanes; type: physicochemical
[5] = thermal stability by thermal gravimetric analysis (TGA); settings: temperature at which 5 wt % loss of MIL is observed

| Compound | solubility in water [1] | μeff (effective magnetic moment) [2] [μB] | albumin extraction efficiency [3] [%] | solubility in hexanes [4] | thermal stability [5] [°C] |
| --- | --- | --- | --- | --- | --- |
| CCCCCCCC[N+](CCCCCCCC)(CCCCCCCC)Cc1cccc(OC)c1.[Cl][Fe-]([Cl])([Cl])[Br] [MIL 2] | I^d (Insoluble at 0.1% (w/v)) | 5.60 |  |  |  |
| CCCCCCCC[N+](CCCCCCCC)(CCCCCCCC)Cc1ccc(C(C)(C)C)cc1.[Cl][Fe-]([Cl])([Cl])[Br] [MIL 3] | I^d (Insoluble at 0.1% (w/v)) | 5.68 |  |  |  |
| CCCCCCCCCCCCCCCCn1cc[n+](CCCCCCCCCCCC[n+]2ccn(CCCCCCCCCCCCCCCC)c2C)c1C.O=S(=O)([N-]S(=O)(=O)C(F)(F)F)C(F)(F)F.[Cl][Fe-]([Cl])([Cl])[Br] [MIL 4b] | I^e (Insoluble at 0.25% (w/v)) | 5.37 |  |  |  |
| CCCCCCCCCCCCCCCCn1c[n+](CCCCCCCCCCCC[n+]2cn(CCCCCCCCCCCCCCCC)c3ccccc32)c2ccccc21.O=S(=O)([N-]S(=O)(=O)C(F)(F)F)C(F)(F)F.[Cl][Fe-]([Cl])([Cl])[Br] [MIL 6] | Id | 5.69 | ~40 |  |  |
| CCCCCCCCCCCCCCCCn1c[n+](CCCCCCCCCCCC[n+]2cn(CCCCCCCCCCCCCCCC)c3ccccc32)c2ccccc21.[Cl][Fe-]([Cl])([Cl])[Br].[Cl][Fe-]([Cl])([Cl])[Br] [MIL 6c] | I^e (Insoluble at 0.25% (w/v)) | 7.58 |  |  |  |
| O=S(=O)([N-]S(=O)(=O)C(F)(F)F)C(F)(F)F.[Cl][Fe-]([Cl])([Cl])[Br].c1ccc(Cn2c[n+](CCCCCCCCCCCC[n+]3cn(Cc4ccccc4)c4ccccc43)c3ccccc32)cc1 [MIL 7] | I^d (Insoluble at 0.1% (w/v)) | 5.45 |  |  |  |
| CCCCCCCCCCCCCCCCn1c[n+](CCCCCCCCCCCC[n+]2ccn(Cc3ccccc3)c2)c2ccccc21.O=S(=O)([N-]S(=O)(=O)C(F)(F)F)C(F)(F)F.[Cl][Fe-]([Cl])([Cl])[Br] [MIL 8] | I^d (Insoluble at 0.1% (w/v)) | 5.30 |  |  |  |
| CCCCCCCCSCCC[n+]1ccn(Cc2cc(Cn3cc[n+](CCCSCCCCCCCC)c3)cc(Cn3cc[n+](CCCSCCCCCCCC)c3)c2)c1.[Cl][Fe-]([Cl])([Cl])[Br].[Cl][Fe-]([Cl])([Cl])[Br].[Cl][Fe-]([Cl])([Cl])[Br] [MIL 11] | I^e (Insoluble at 0.25% (w/v)) | 11.76 |  |  |  |
| CCCCCCCCCCCCCC[P+](CCCCCC)(CCCCCC)CCCCCC.[Cl][Fe-]([Cl])([Cl])[Cl] [[P6,6,6,14+][FeCl4−], trihexyl(tetradecyl)phosphonium tetrachloroferrate(III), reference compound] |  |  | ~40 |  |  |
| benzyltrioctylammonium bromotrichloroferrate(III) [MIL 1] | I^d (Insoluble at 0.1% (w/v)) | 5.26 | 5.0 | I | 258 |
